Reference: patent US20250313548A1 (Actio Biosciences, Inc., priority 2023, published 2025)

Biological target: human, KCNT1 (Homo sapiens (Human), UniProt Q5JUK3)
Assay: FLIPR Tl/K Flux Assay
Format: cell-based
Conditions: HEK293 cells stably expressing human KCNT1; Tl+ flux stimulated with EC80 of agonist Loxapine
How it was run: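 Inhibition values come from a Hill-equation fit of % inhibition versus log concentration, using normalized fluorescence (Fmax/Fmin) over a 160 s read. The read followed stimulation with Tl+ plus EC80 agonist loxapine after 30 min compound pre-incubation at 25 °C. Cells were KCNT1-expressing HEK293, dye-loaded 1 h in pH 7.4 HEPES/HBSS with 5 mM probenecid.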

Chain of human, KCNT1 (Q5JUK3 whole entry): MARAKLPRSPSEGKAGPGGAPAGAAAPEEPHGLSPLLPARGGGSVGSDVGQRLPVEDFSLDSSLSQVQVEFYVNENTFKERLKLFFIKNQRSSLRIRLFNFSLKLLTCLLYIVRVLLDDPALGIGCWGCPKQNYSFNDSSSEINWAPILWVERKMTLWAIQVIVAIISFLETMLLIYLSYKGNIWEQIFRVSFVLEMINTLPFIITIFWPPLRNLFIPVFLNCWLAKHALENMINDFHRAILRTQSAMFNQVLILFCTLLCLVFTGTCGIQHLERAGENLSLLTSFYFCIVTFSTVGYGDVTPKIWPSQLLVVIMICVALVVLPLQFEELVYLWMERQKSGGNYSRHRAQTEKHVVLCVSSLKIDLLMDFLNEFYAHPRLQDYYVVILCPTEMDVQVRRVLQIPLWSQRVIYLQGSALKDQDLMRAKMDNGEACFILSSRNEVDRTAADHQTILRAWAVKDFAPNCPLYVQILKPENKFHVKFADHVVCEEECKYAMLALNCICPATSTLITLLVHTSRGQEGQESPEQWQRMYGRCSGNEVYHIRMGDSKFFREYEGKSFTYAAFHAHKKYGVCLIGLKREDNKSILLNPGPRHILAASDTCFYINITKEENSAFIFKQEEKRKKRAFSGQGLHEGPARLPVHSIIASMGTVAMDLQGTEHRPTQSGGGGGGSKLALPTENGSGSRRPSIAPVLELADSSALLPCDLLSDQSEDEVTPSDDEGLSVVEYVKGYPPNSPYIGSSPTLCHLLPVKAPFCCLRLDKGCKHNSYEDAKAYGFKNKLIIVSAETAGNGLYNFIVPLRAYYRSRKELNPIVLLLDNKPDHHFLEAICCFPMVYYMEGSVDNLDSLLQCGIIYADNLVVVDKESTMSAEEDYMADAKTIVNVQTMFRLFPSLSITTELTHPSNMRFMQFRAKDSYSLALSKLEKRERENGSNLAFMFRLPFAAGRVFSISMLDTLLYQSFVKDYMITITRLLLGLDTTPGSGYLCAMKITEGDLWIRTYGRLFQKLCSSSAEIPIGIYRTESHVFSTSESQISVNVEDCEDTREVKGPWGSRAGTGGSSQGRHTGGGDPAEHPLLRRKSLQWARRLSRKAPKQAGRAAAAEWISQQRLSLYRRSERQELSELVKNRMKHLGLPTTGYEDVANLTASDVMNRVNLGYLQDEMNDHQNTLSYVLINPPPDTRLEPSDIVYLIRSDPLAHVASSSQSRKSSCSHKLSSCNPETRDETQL

IC50	Compound
< 250 nM	Cn1nc(C(F)F)nc1C(=O)N[C@H]1CCn2nc(-c3ccnc(C(F)(F)F)c3)cc21 [Compound I-155a, (S)-3-(Difluoromethyl)-1-methyl-N-(2-(2-(trifluoromethyl)pyridin-4-yl)-5,6-dihydro-4H-pyrrolo[1,2-b]pyrazol-4-yl)-1H-1,2,4-triazole-5-carboxamide]
250 to 500 nM	Cc1nc(C(=O)N[C@H]2CCn3nc(-c4ccnc(C5CC5)c4)cc32)n(C)n1 [Compound I-218a, (S)-N-(2-(2-Cyclopropylpyridin-4-yl)-5,6-dihydro-4H-pyrrolo[1,2-b]pyrazol-4-yl)-1,3-dimethyl-1H-1,2,4-triazole-5-carboxamide]
250 to 500 nM	Cc1c2c(nn1-c1ccnc(C(F)(F)F)c1)CCC[C@@H]2NC(=O)c1cc(C(F)(F)F)nn1C [Compound I-90a]
< 250 nM	Cn1nc(C(F)(F)F)nc1C(=O)N[C@H]1CCCc2oc(-c3cc(C4CC4)ncc3F)nc21 [Compound I-191a, (S)—N-(2-(2-Cyclopropyl-5-fluoropyridin-4-yl)-4,5,6,7-tetrahydrobenzo[d]oxazol-4-yl)-1-methyl-3-(trifluoromethyl)-1H-1,2,4-triazole-5-carboxamide]
> 1000 nM	Cn1nc(C(F)(F)F)cc1C(=O)NC1CCCc2nn(-c3ccn4ccnc4c3)cc21 (racemic) [Compound I-34, (rac)-N-(2-(Imidazo[1,2-a]pyridin-7-yl)-4,5,6,7-tetrahydro-2H-indazol-4-yl)-1-methyl-3-(trifluoromethyl)-1H-pyrazole-5-carboxamide]
< 250 nM	CCOc1cc(-c2cc3n(n2)CCC[C@@H]3NC(=O)c2cc(F)cc(C#N)c2)ccn1 [Compound I-252a, (S)-3-Cyano-N-(2-(2-ethoxypyridin-4-yl)-4,5,6,7-tetrahydropyrazolo[1,5-a]pyridin-4-yl)-5-fluorobenzamide]
> 1000 nM	CCOc1cc(-n2cc3c(n2)CCCC3NC(=O)c2ccccc2)ccn1 (stereo not drawn) [Compound I-27]
> 1000 nM	Cc1ccc(C(=O)N[C@@H]2CCc3nn(-c4ccnc(C(F)(F)F)c4)cc32)c(C)c1 [Compound I-93b]
< 250 nM	COc1cc(-c2cc3n(n2)CC[C@@H]3NC(=O)c2cc(F)cc(C#N)c2)ccn1 [Compound I-301a, (S)-3-Cyano-5-fluoro-N-(2-(2-methoxypyridin-4-yl)-5,6-dihydro-4H-pyrrolo[1,2-b]pyrazol-4-yl)benzamide]
< 250 nM	Cc1cnc(C(F)(F)F)cc1-c1cc2n(n1)CCC[C@@H]2NC(=O)c1nc(C(F)(F)F)nn1C [Compound I-303a, (S)-1-Methyl-N-(2-(5-methyl-2-(trifluoromethyl)pyridin-4-yl)-4,5,6,7-tetrahydropyrazolo[1,5-a]pyridin-4-yl)-3-(trifluoromethyl)-1H-1,2,4-triazole-5-carboxamide]
< 250 nM	CC(F)(F)c1cc(-c2cc3n(n2)CC[C@@H]3NC(=O)c2cccc(C#N)c2)ccn1 [Compound I-261a, (S)-3-Cyano-N-(2-(2-(1,1-difluoroethyl)pyridin-4-yl)-5,6-dihydro-4H-pyrrolo[1,2-b]pyrazol-4-yl)benzamide]
< 250 nM	O=C(N[C@H]1CCCc2oc(-c3ccnc(C4CC4)c3)nc21)c1cn(C(F)(F)F)nc1C(F)F [Compound I-505a, (S)—N-(2-(2-Cyclopropylpyridin-4-yl)-4,5,6,7-tetrahydrobenzo[d]oxazol-4-yl)-3-(difluoromethyl)-1-(trifluoromethyl)-1H-pyrazole-4-carboxamide]
< 250 nM	O=C(N[C@H]1CCn2nc(-c3ccnc(C4CC4)c3)cc21)C12CC(C(F)(F)F)(C1)C2 [Compound I-494a, (S)-N-(2-(2-Cyclopropylpyridin-4-yl)-5,6-dihydro-4H-pyrrolo[1,2-b]pyrazol-4-yl)-3-(trifluoromethyl)bicyclo[1.1.1]pentane-1-carboxamide]
< 250 nM	N#Cc1cc(C(=O)N[C@H]2CCn3nc(-c4ccnc(C(F)(F)F)c4)cc32)ccc1F [Compound I-266a, (S)-3-Cyano-4-fluoro-N-(2-(2-(trifluoromethyl)pyridin-4-yl)-5,6-dihydro-4H-pyrrolo[1,2-b]pyrazol-4-yl)benzamide]
> 1000 nM	O=C(N[C@H]1CCCn2nc(-c3ccnc(C(F)(F)F)c3)cc21)c1nccc(C(F)(F)F)n1 [Compound I-438a]
< 250 nM	COc1cc(F)cc(C(=O)N[C@H]2CCc3nn(-c4ccnc(C(F)(F)F)c4)cc32)c1 [Compound I-561a, (S)-3-Fluoro-5-methoxy-N-(2-(2-(trifluoromethyl)pyridin-4-yl)-2,4,5,6-tetrahydrocyclopenta[c]pyrazol-4-yl)benzamide]
< 250 nM	Cc1cnc(C(F)(F)F)cc1-c1cc2n(n1)CC[C@@H]2NC(=O)c1nc(C(F)(F)F)nn1C [Compound I-141a, (S)-1-Methyl-N-(2-(5-methyl-2-(trifluoromethyl)pyridin-4-yl)-5,6-dihydro-4H-pyrrolo[1,2-b]pyrazol-4-yl)-3-(trifluoromethyl)-1H-1,2,4-triazole-5-carboxamide]
250 to 500 nM	COc1cc(-c2nc3n(n2)CCC[C@@H]3NC(=O)c2cc(C(F)(F)F)nn2C)ccn1 [Compound I-260a, (S)—N-(2-(2-Methoxypyridin-4-yl)-5,6,7,8-tetrahydro-[1,2,4]triazolo[1,5-a]pyridin-8-yl)-1-methyl-3-(trifluoromethyl)-1H-pyrazole-5-carboxamide]
< 250 nM	COc1cc(-c2cc3n(n2)CCC[C@@H]3NC(=O)c2cc(C(F)(F)F)nn2C)ccn1 [Compound I-366a]

IC50	Compound
< 250 nM	CCc1cc(C#N)cc(C(=O)N[C@H]2CCCCn3nc(-c4ccnc(C(F)(F)F)c4)cc32)c1 [Compound I-244a, (S)-3-Cyano-5-ethyl-N-(2-(2-(trifluoromethyl)pyridin-4-yl)-5,6,7,8-tetrahydro-4H-pyrazolo[1,5-a]azepin-4-yl)benzamide]
< 250 nM	O=C(N[C@H]1CCCc2oc(-c3ccnc(C(F)(F)F)c3)nc21)c1cccc(C(F)(F)F)c1 [Compound I-251a, (S)-3-(Trifluoromethyl)-N-(2-(2-(trifluoromethyl)pyridin-4-yl)-4,5,6,7-tetrahydrobenzo[d]oxazol-4-yl)benzamide]
< 250 nM	CCOc1cc(C(=O)N[C@H]2CCn3nc(-c4ccnc(C(F)(F)F)c4)cc32)ccn1 [Compound I-264a]
< 250 nM	O=C(N[C@H]1CCc2nn(-c3ccnc(C(F)(F)F)c3)cc21)c1cc(Cl)cc(Cl)c1 [Compound I-99a]
< 250 nM	O=C(N[C@H]1CCCn2nc(-c3ccnc(C(F)(F)F)c3)cc21)c1cn(C(F)(F)F)nc1C(F)(F)F [Compound I-338a, (S)-1,3-bis(trifluoromethyl)-N-(2-(2-(trifluoromethyl)pyridin-4-yl)-4,5,6,7-tetrahydropyrazolo[1,5-a]pyridin-4-yl)-1H-pyrazole-4-carboxamide]
> 1000 nM	O=C(N[C@H]1CCCc2nnc(-c3ccnc(C(F)(F)F)c3)cc21)c1cc(F)cc(F)c1 [Compound I-453a]
< 250 nM	Cn1nc(C(F)(F)F)cc1C(=O)N[C@H]1CCc2cnc(-c3ccnc(C(F)(F)F)c3)cc21 [Compound I-118a]
< 250 nM	O=C(N[C@H]1CCCc2nn(-c3ccnc(C(F)(F)F)c3)cc21)c1cc(C(F)(F)F)nn1C1CC1 [Compound I-9a, (S)-1-Cyclopropyl-3-(trifluoromethyl)-N-(2-(2-(trifluoromethyl)pyridin-4-yl)-4,5,6,7-tetrahydro-2H-indazol-4-yl)-1H-pyrazole-5-carboxamide]
> 1000 nM	C#Cc1cc(-n2cc3c(n2)CC[C@H]3NC(=O)c2cc(C(F)(F)F)nn2C)ccn1 [Compound I-78b]
< 250 nM	O=C(N[C@H]1CCc2nn(-c3ccnc(C(F)(F)F)c3)cc21)C12CC(C(F)(F)F)(C1)C2 [Compound I-553a, (S)-3-(Trifluoromethyl)-N-(2-(2-(trifluoromethyl)pyridin-4-yl)-2,4,5,6-tetrahydrocyclopenta[c]pyrazol-4-yl)bicyclo[1.1.1]pentane-1-carboxamide]
< 250 nM	Cc1cnc(C(F)(F)F)cc1-n1cc2c(n1)CC[C@@H]2NC(=O)c1cc(C(F)(F)F)nn1C [Compound I-304a, (S)-1-Methyl-N-(2-(5-methyl-2-(trifluoromethyl)pyridin-4-yl)-2,4,5,6-tetrahydrocyclopenta[c]pyrazol-4-yl)-3-(trifluoromethyl)-1H-pyrazole-5-carboxamide]
> 1000 nM	Cn1nc(C(F)(F)F)cc1C(=O)N[C@H]1CCc2ncc(-c3ccnc(C(F)(F)F)c3)cc21 [Compound I-460a]
< 250 nM	CCOc1cc(-n2cc3c(n2)CCCC3NC(=O)c2cccc(C(F)(F)F)c2)ccn1 (racemic) [Compound I-18, (rac)-N-(2-(2-Ethoxypyridin-4-yl)-4,5,6,7-tetrahydro-2H-indazol-4-yl)-3-(trifluoromethyl)benzamide]
< 250 nM	Cn1nc(C(F)(F)F)cc1C(=O)N[C@H]1CCCc2cnc(-c3ccnc(C(F)(F)F)c3)cc21 [Compound I-116a]
< 250 nM	Cc1cc(C(=O)N[C@H]2CCCc3oc(-c4ccnc(C(F)(F)F)c4)nc32)cc(C(F)(F)F)c1 [Compound I-250a, (S)-3-Methyl-5-(trifluoromethyl)-N-(2-(2-(trifluoromethyl)pyridin-4-yl)-4,5,6,7-tetrahydrobenzo[d]oxazol-4-yl)benzamide]
< 250 nM	Cn1nc(C(F)(F)F)cc1C(=O)N[C@H]1CCCn2nc(-c3ccnc(C(C)(F)F)c3)cc21 [Compound I-379a]
< 250 nM	Cn1nc(C(F)(F)F)cc1C(=O)NC1CCCn2nc(-c3ccnc(C(F)(F)F)c3)cc2C1 (stereo not drawn) [Compound I-465]
< 250 nM	COc1cc(-n2cc3c(n2)CC[C@@H]3NC(=O)c2cc(F)cc(F)c2)ccn1 [Compound I-446a]
< 250 nM	Cn1ncc(C(=O)N[C@H]2CCCn3nc(-c4ccnc(C(F)(F)F)c4)cc32)c1C(F)F [Compound I-421a]

Compound	IC50
(S)-3-Chloro-5-methyl-N-(2-(2-(trifluoromethyl)pyridin-4-yl)-2,4,5,6-tetrahydrocyclopenta[c]pyrazol-4-yl)benzamide [Compound I-129a]	< 250 nM
